Measured values reported in patent US8524745B2 (Allergan, Inc., priority 2011, dated 2013).

Target: T1, CCR2 (Homo sapiens, UniProt P41597)
T1 construct: expressed in transfected cells
Experiment: CCR2 calcium activity assay on FLIPR Tetra in HEK-Gqi5 cells stably expressing CCR2
Assay type: cell-based
Experimental: HEK-Gqi5 cells stably expressing CCR2 were cultured in (DMEM high glucose, 10% FBS, 1% PSA, 400 μg/ml geneticin and 50 μg/ml hygromycin. Appropriate positive control chemokines (MCP-1, MIP1A or RANTES) was used as the positive control agonist for screening compound-induced calcium activity assayed on the FLIPR^Tetra. The drug plates were prepared in 384-well microplates using the EP3 and the MuItiPROBE robotic liquid handling systems. Compounds were synthesized and tested for CCR2 activity.

T1 sequence (P41597 whole entry, species assumed): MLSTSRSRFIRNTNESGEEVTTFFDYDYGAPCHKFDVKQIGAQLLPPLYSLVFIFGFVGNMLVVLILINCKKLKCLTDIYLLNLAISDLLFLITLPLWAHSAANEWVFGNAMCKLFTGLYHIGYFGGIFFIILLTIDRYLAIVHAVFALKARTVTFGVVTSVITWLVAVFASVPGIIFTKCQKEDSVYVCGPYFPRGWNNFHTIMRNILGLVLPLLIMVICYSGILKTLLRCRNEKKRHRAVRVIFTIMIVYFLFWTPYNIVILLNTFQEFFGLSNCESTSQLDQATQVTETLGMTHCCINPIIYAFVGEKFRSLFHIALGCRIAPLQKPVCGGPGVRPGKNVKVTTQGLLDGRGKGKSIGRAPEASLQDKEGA

Row | CCR2 % ANTAG [%] | IC50 [µM] | SMILES
1 | 96 | 0.543 | Cn1sc(=O)c2cc(S(=O)(=O)N[C@@H]3CCCC[C@H]3NS(=O)(=O)c3ccc(Cl)c(C(F)(F)F)c3)ccc21 (relative stereo) [rel-N-[(1R,2R)-2-({[4-chloro-3-(trifluoromethyl)phenyl]sulfonyl}amino)cyclohexyl]-1-methyl-3-oxo-1,3-dihydro-2,1-benzisothiazole-5-sulfonamide]
2 | 84 | 0.529 | Cn1sc(=O)c2cc(S(=O)(=O)Nc3cc(Cl)c(Cl)cc3NS(=O)(=O)c3ccc(Cl)c(C(F)(F)F)c3)ccc21 [N-[4,5-dichloro-2-({[4-chloro-3-(trifluoromethyl)phenyl]sulfonyl}amino)phenyl]-1-methyl-3-oxo-1,3-dihydro-2,1-benzisothiazole-5-sulfonamide]
3 | 100 | 0.537 | Cn1sc(=O)c2cc(S(=O)(=O)Nc3cc(Br)ccc3NS(=O)(=O)c3cccs3)ccc21 [N-{5-bromo-2-[(2-thienylsulfonyl)amino]phenyl}-1-methyl-3-oxo-1,3-dihydro-2,1-benzisothiazole-5-sulfonamide]
4 | 83 | 1.08 | Cn1sc(=O)c2cc(S(=O)(=O)Nc3cc(Cl)ccc3NCc3cccs3)ccc21 [N-{5-chloro-2-[(2-thienylmethyl)amino]phenyl}-1-methyl-3-oxo-1,3-dihydro-2,1-benzisothiazole-5-sulfonamide]
5 | 86 | 1.01 | COc1ccc(S(=O)(=O)Nc2cc(Cl)c(Cl)cc2NS(=O)(=O)c2ccc3c(c2)c(=O)sn3C)cc1 [N-(4,5-dichloro-2-{[(4-methoxyphenyl)sulfonyl]amino}phenyl)-1-methyl-3-oxo-1,3-dihydro-2,1-benzisothiazole-5-sulfonamide]
6 | 56 | – | COc1ccc(C(=O)Nc2ccc(Cl)cc2NS(=O)(=O)c2ccc3c(c2)c(=O)sn3C)cc1 [N-(4-chloro-2-{[(1-methyl-3-oxo-1,3-dihydro-2,1-benzisothiazol-5-yl)sulfonyl]amino}phenyl)-4-methoxybenzamide]
7 | 86 | – | Cc1cccc(NS(=O)(=O)c2ccc3c(c2)c(=O)sn3C)c1NS(=O)(=O)c1cccs1 [1-methyl-N-{3-methyl-2-[(2-thienylsulfonyl)amino]phenyl}-3-oxo-1,3-dihydro-2,1-benzisothiazole-5-sulfonamide]
8 | 56 | 2.18 | Cn1sc(=O)c2cc(S(=O)(=O)NCc3ccccc3NS(=O)(=O)c3cccs3)ccc21 [1-methyl-3-oxo-N-{2-[(2-thienylsulfonyl)amino]benzyl}-1,3-dihydro-2,1-benzisothiazole-5-sulfonamide]
9 | 60 | 2.48 | Cn1cc(S(=O)(=O)Nc2ccccc2NS(=O)(=O)c2ccc3c(c2)c(=O)sn3C)cn1 [1-methyl-N-(2-{[(1-methyl-1H-pyrazol-4-yl)sulfonyl]amino}phenyl)-3-oxo-1,3-dihydro-2,1-benzisothiazole-5-sulfonamide]
10 | 104 | 0.744 | Cn1sc(=O)c2cc(S(=O)(=O)Nc3ccccc3NS(=O)(=O)c3ccco3)ccc21 [N-{2-[(2-furylsulfonyl)amino]phenyl}-1-methyl-3-oxo-1,3-dihydro-2,1-benzisothiazole-5-sulfonamide]
11 | 80 | 1.85 | Cc1cc(NS(=O)(=O)c2ccc3c(c2)c(=O)sn3C)c(C)cc1Cl [N-(4-chloro-2,5-dimethylphenyl)-1-methyl-3-oxo-1,3-dihydro-2,1-benzisothiazole-5-sulfonamide]
12 | 93 | 1.02 | COc1ccc(S(=O)(=O)Nc2ccc(Cl)cc2NS(=O)(=O)c2ccc3c(c2)c(=O)sn3C)cc1OC [N-(5-chloro-2-{[(3,4-dimethoxyphenyl)sulfonyl]amino}phenyl)-1-methyl-3-oxo-1,3-dihydro-2,1-benzisothiazole-5-sulfonamide]
13 | 35 | 0.551 | CN(C)c1ccc(NS(=O)(=O)c2cccs2)c(NS(=O)(=O)c2ccc3c(c2)c(=O)sn3C)c1
